Reference: patent US5492909A, “Triazolopyridazine derivatives, their production and use” (Takeda Chemical Industries, Ltd., priority 1993, dated 1996)

System: PAF-induced bronchoconstriction
Experiment: Effect on bronchoconstriction induced by platelet activating factor (PAF) in guinea pigs (Konzett-Roessler method)
Format: in vivo, guinea pig (male Hartley)
Conditions: oral, 1 hour before PAF (1 μg/kg i.v.)
Protocol: [Effect on bronchoconstriction induced by platelet activating factor (PAF) in guinea pigs]
Male Hartley guinea pigs (body weights about 500 g) were used. The bronchoconstriction reaction in the guinea pig which has intravenously been administered with PAF (1 μg/kg) was measured by the Konzett-Roessler method.
The trachea of the guinea pig with its back fixed was incised under anesthesia condition with urethane (intravenous injection, 1.5 g/kg) and connected with an artificial respirator via a cannula. The branch of the tracheal cannula was connected with a transducer (7020 type, manufactured by Ugobasile). Air was sent to the trachea at the rate of 3 to 7 ml per stroke, 70 strokes/min. and at load pressure of 10 cm H2 O to lung, and overflowed air volume was recorded with Rectegraph (Recte-Hori-8s, Sanei Sokuki Co., Ltd., Japan) via transducer. After the guinea pig was treated with gallamine (intravenous injection, 1 mg/kg), 1 μg/kg of PAF dissolved in a physiological saline solution was administered to the guinea pig via jugular venous cannula and the bronchoconstriction reaction induced thereby was recorded for 15 minutes. The drug (3 mg/kg and 10 mg/kg respectively) suspended in a 5% gum arabic solution was administered orally 1 hour before the injection of PAF.

CCC(CC)(COc1cc(C)c2nncn2n1)CS(N)(=O)=O [Example 1, 6-(2,2-diethyl-3-sulfamoyl-1-propoxy)-8-methyl-[1,2,4]triazolo[4,3-b]pyridazine]
Inhibition (%) of PAF-induced bronchoconstriction (3 mg/kg): 85.8% | Inhibition (%) of PAF-induced bronchoconstriction (10 mg/kg): 100%

CCC(CC)(COc1ccc2nncn2n1)CS(N)(=O)=O [Example 3, 6-(2,2-diethyl-3-sulfamoyl-1-propoxy)[1,2, 4]triazolo[4,3-b]pyridazine]
Inhibition (%) of PAF-induced bronchoconstriction (3 mg/kg): 51.1% | Inhibition (%) of PAF-induced bronchoconstriction (10 mg/kg): 61.2%

CC(C)(COc1ccc2nncn2n1)CS(N)(=O)=O [Example 5, 6-(2,2-dimethyl-3-sulfamoyl-1-propoxy)[1,2,4]triazolo[4,3-b]pyridazine]
Inhibition (%) of PAF-induced bronchoconstriction (3 mg/kg): 22.4% | Inhibition (%) of PAF-induced bronchoconstriction (10 mg/kg): 41.2%
